Measurements: article PMC3216401 (Antiviral research, 2011)
Like-named read-outs stand apart in the source and are kept apart here.

How the values were obtained:
[1] = system: Influenza A/Vietnam/1203/2004 (H5N1); assay: microbe, parasite or virus in culture; format: cell-based; conditions: H5N1, MDCK, read-out: IC90, VYR Assay
in vitro [2] = conditions: dog, CC50, Visual Assay
in vitro [3] = conditions: dog, CC50, Neutral Red Uptake Assay
[4] = system: A/Thailand/2(Kan-1)/16/2004 (H5N1); assay: microbe, parasite or virus in culture; conditions: Influenza A virus, H5N1, MDCK, read-out: IC50, Visual Assay
[5] = system: A/Hong Kong/213/2003 (H5N1); assay: microbe, parasite or virus in culture; conditions: Influenza A virus, H5N1, MDCK, read-out: IC50, Neutral Red Uptake Assay
[6] = system: A/Hong Kong/213/2003 (H5N1)
[7] = system: Influenza A/Vietnam/1203/2004 (H5N1); assay: microbe, parasite or virus in culture; conditions: H5N1, MDCK, read-out: IC50, Neutral Red Uptake Assay
[8] = system: A/Hong Kong/213/2003 (H5N1); assay: microbe, parasite or virus in culture; conditions: Influenza A virus, H5N1, MDCK, read-out: IC50, Visual Assay
[9] = system: A/Thailand/2(Kan-1)/16/2004 (H5N1); assay: microbe, parasite or virus in culture; format: cell-based; conditions: Influenza A virus, H5N1, MDCK, read-out: IC90, VYR Assay
[10] = system: A/Hong Kong/213/2003 (H5N1); assay: microbe, parasite or virus in culture; format: cell-based; conditions: Influenza A virus, H5N1, MDCK, read-out: IC90, VYR Assay
[11] = system: A/Thailand/2(Kan-1)/16/2004 (H5N1)
[12] = system: A/Hong Kong/213/2003 (H5N1); remark: listed apart in the source
[13] = system: A/Thailand/2(Kan-1)/16/2004 (H5N1); assay: microbe, parasite or virus in culture; conditions: Influenza A virus, H5N1, MDCK, read-out: IC50, Neutral Red Uptake Assay
[14] = system: A/Thailand/2(Kan-1)/16/2004 (H5N1); remark: listed apart in the source
[15] = mouse, in vivo
[16] = system: Influenza A/Vietnam/1203/2004 (H5N1); assay: microbe, parasite or virus in culture; conditions: H5N1, MDCK, read-out: IC50, Visual Assay
[17] = system: influenza A/Vietnam/1203/2004 H5N1 virus; conditions: in vivo
[18] = system: Influenza A/Vietnam/1203/2004 (H5N1)
[19] = system: Influenza A/Vietnam/1203/2004 (H5N1); remark: listed apart in the source
influenza virus = conditions: mouse, in vivo, sc; cited from earlier work
influenza virus (H1N1) = conditions: read-out: EC50, influenza virus replication in MDCK cells; cited from earlier work
influenza viruses = assay: microbe, parasite or virus in culture; format: cell-based, influenza A and B viruses; conditions: Influenza A virus, read-out: IC50 values, range
MDCK cells [20] = system: MDCK cells
MDCK cells [21] = system: MDCK cells; remark: listed apart in the source

For `Nc1nc(=O)n([C@H]2C[C@H](O)[C@@H](CO)O2)cc1F` [2'-deoxy-5-fluorocytidine], the IC90 [1] was 0.13 µM, the CC50 (in vitro [2]) was > 100 µM and the CC50 (in vitro [3]) was > 100 µM. For the same compound, the IC50 [4] was > 100 µM, the IC50 [5] was > 100 µM and the “SI (CC50/IC50), Neutral Red Uptake Assay” value [6] was 0 ± 0. The IC50 [7] was 0.09 ± 0.1 µM, the IC50 [8] was > 100 µM and the IC90 [9] was > 100 µM. The IC90 [10] was > 100 µM, the “SI (CC50/IC50), Neutral Red Uptake Assay” value [11] was 0 ± 0 and the “SI (CC50/IC50), Visual Assay” value [12] was 0 ± 0. For the same compound, the IC50 [13] was > 100 µM, the “SI (CC50/IC50), Visual Assay” value [14] was 0 ± 0 and the Tolerability [15] was “well- tolerated”. For the same compound, the Toxicity in mice [15] was “considerable toxicity in the form of severe weight loss”, the IC50 [16] was 0.19 ± 0.03 µM and the “Inhibition in the H5N1 mouse model” value [17] was “not inhibitory”. The “Toxicity in the H5N1 mouse model” value [17] was “very toxic”, the “Promotion of survival of infected mice” value ([17]; mouse) was “not very effective” and the “Protection from death, i.p.” value ([17]; mouse) was “not shielded from death”.

For `Nc1ncnc2c1ncn2[C@@H]1O[C@H](CO)[C@@H](O)[C@H]1F` [2’-deoxy-2’-fluoroadenosine], the IC50 [4] was > 100 µM, the IC50 [5] was > 100 µM and the “SI (CC50/IC50), Neutral Red Uptake Assay” value [6] was 0. For the same compound, the IC50 [7] was > 100 µM, the IC50 [8] was > 100 µM and the “SI (CC50/IC50), Neutral Red Uptake Assay” value [11] was 0. For the same compound, the “SI (CC50/IC50), Visual Assay” value [12] was 0, the IC50 [13] was > 100 µM and the “SI (CC50/IC50), Visual Assay” value [14] was 0. For the same compound, the “SI (CC50/IC50), Neutral Red Uptake Assay” value [18] was 0, the “SI (CC50/IC50), Visual Assay” value [19] was 0 and the IC50 [16] was > 100 µM.

For `Nc1nc2c(ncn2[C@@H]2O[C@H](CO)[C@@H](O)[C@H]2F)c(=O)[nH]1` [2’-deoxy-2’-fluoroguanosine], the “Mice protected from death” value (influenza virus) is listed as 50%, the IC50 [4] is listed as > 100 µM and the IC50 [7] is listed as 8.6 µM. For the same compound, the IC50 [8] was 8.5 µM, the “SI (CC50/IC50), Visual Assay” value [12] was >12 and the “SI (CC50/IC50), Visual Assay” value [14] was 0. For the same compound, the “SI (CC50/IC50), Neutral Red Uptake Assay” value [18] was >12, the “SI (CC50/IC50), Visual Assay” value [19] was >4.8 and the EC50 (influenza virus (H1N1)) was 18.2 µM. It also gave an IC50 [16] of 21 µM and an IC50 (influenza viruses) of 8.5 to 21 µM.

In the case of `Nc1ccn([C@@H]2O[C@H](CO)[C@@H](O)[C@H]2I)c(=O)n1` [2’-iodo-2’-deoxycytidine], the IC50 [4] is reported as > 100 µM, the IC50 [5] is reported as > 100 µM and the “SI (CC50/IC50), Neutral Red Uptake Assay” value [6] is reported as 0. For the same compound, the IC50 [7] was > 100 µM, the IC50 [8] was > 100 µM and the “SI (CC50/IC50), Neutral Red Uptake Assay” value [11] was 0. The “SI (CC50/IC50), Visual Assay” value [12] was 0, the IC50 [13] was > 100 µM and the “SI (CC50/IC50), Visual Assay” value [14] was 0. For the same compound, the “SI (CC50/IC50), Neutral Red Uptake Assay” value [18] was 0, the “SI (CC50/IC50), Visual Assay” value [19] was 0 and the IC50 [16] was > 100 µM.

For `O=c1ccn([C@@H]2O[C@H](CO)[C@@H](O)[C@H]2F)c(=O)[nH]1` [2’-deoxy-2’-fluorouridine], the IC50 [4] was > 100 µM, the IC50 [7] was > 100 µM and the “SI (CC50/IC50), Visual Assay” value [14] was 0. The “SI (CC50/IC50), Neutral Red Uptake Assay” value [18] was 0, the “SI (CC50/IC50), Visual Assay” value [19] was 0 and the IC50 [16] was > 100 µM.

With `[N-]=[N+]=N[C@@H]1[C@H](O)[C@@H](COP(=O)(O)OP(=O)(O)OP(=O)(O)O)O[C@H]1n1ccc(N)nc1=O` [2’-azido-2’-deoxycytidine, 2'-azido-2'-deoxyctidine-5'-triphosphate] the “SI (CC50/IC50), Neutral Red Uptake Assay” value [6] was 0 ± 0, the “SI (CC50/IC50), Neutral Red Uptake Assay” value [11] was 0 ± 0 and the “SI (CC50/IC50), Visual Assay” value [12] was 0 ± 0. The “SI (CC50/IC50), Visual Assay” value [14] was 0 ± 0, the “SI (CC50/IC50), Neutral Red Uptake Assay” value [18] was > 2030 and the “CC50, Visual Assay” value (MDCK cells [20]) was >100 ± 0 µM. The “CC50, Neutral Red Uptake Assay” value (MDCK cells [21]) was >100 ± 0 µM.
